According to ChEMBL document CHEMBL1201862, “PubChem BioAssay data set” (2004):
The source made the active and inactive calls.

Tests used:
[1] = biological target: Eukaryotic translation initiation factor 4E (Mus musculus, UniProt P63073); assay: eIF4E–eIF4G protein interaction inhibitors, dose response, biochemical, TR-FRET (AID 855); assay type: functional;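 note: potency for disrupting eIF4E binding to eIF4GI seen as loss of FRET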
[2] = biological target: T1, Delta-type opioid receptor (Homo sapiens, UniProt P41143); assay: HTS Image-Based Screen for Antagonists of the DOR Receptor. [Related pubchem assays (depositor defined):AID1777, AID1785, AID1786, AID2133]; assay type: functional
T1 sequence (P41143 whole entry): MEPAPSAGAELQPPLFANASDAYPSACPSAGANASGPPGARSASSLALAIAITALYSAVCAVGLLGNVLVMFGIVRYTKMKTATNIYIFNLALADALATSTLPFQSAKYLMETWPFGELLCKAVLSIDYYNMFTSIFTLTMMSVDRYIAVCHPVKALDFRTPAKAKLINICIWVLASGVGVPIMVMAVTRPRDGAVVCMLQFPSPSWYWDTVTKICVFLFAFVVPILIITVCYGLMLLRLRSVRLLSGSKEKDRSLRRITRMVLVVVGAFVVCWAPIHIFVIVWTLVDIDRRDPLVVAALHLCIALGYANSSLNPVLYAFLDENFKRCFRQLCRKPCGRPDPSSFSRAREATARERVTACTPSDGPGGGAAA

[3] = inhibitors of firefly luciferase expression or activity, dose response, H4 neuroglioma cells, luminescence (AID 1990); assay type: functional, cell-based
HEK293 [4] = assay: NOD1 signaling inhibitors, primary screen, cell-based, luminescence, uHTS (AID 1578); assay type: functional; conditions: Homo sapiens
Mu-type opioid receptor = Mu-type opioid receptor (Homo sapiens, UniProt P35372); assay: HTS Image-Based Screen for Agonists of the MOR Receptor. [Related pubchem assays (depositor defined):AID1777, AID1785, AID1786, AID2133]; assay type: functional;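 note: imaging of beta-arrestin GFP recruitment into spots after receptor activation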
[5] = biological target: T1, Delta-type opioid receptor; assay: HTS Image-Based Screen for Agonists of the DOR Receptor. [Related pubchem assays (depositor defined):AID1777, AID1786, AID2133]; assay type: functional
BJ [6] = assay: cytotoxicity toward BJ-TERT fibroblasts, dose response, cell-based, RAS-independent, luminescence (AID 1933); assay type: functional; conditions: Homo sapiens
HEK293 [7] = assay: cells; assay type: functional, cell-based; conditions: Homo sapiens
[8] = Luminescence Cell-Based Dose Response HTS to Identify Inhibitors of 5'UTR Stem-Loop Driven Prion Protein mRNA Translation in H4 Neuroglioblastoma Cells. [Related pubchem assays: 1827 (Project Summary), 1813 (Primary HTS)]; assay type: functional
[9] = inhibitors of SNCA 5'UTR-driven reporter translation, confirmation, H4 neuroglioma cells, luminescence (AID 1988); assay type: functional, cell-based
BJ [10] = assay: cells; assay type: functional, cell-based; conditions: Homo sapiens
HEK293 [11] = assay: cells; assay type: functional, cell-based; conditions: Homo sapiens; remark: listed apart in the source
HEK293 [12] = assay: NOD2 signaling inhibitors in MDP-stimulated cells, cell-based, uHTS, luminescence (AID 2001); assay type: functional; conditions: Homo sapiens
[13] = biological target: T2, Kappa-type opioid receptor (Homo sapiens, UniProt P41145); assay type: functional
T2 sequence (P41145 whole entry): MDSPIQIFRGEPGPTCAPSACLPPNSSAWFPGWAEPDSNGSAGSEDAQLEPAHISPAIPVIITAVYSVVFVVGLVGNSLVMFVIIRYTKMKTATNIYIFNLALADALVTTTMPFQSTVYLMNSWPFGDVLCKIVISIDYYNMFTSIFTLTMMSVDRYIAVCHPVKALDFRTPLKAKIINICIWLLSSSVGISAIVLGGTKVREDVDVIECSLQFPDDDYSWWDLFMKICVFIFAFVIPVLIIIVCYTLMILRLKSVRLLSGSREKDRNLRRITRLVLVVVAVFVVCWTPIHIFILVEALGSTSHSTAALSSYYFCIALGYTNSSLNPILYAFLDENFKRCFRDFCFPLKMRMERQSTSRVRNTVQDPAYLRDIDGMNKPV

Beta-galactosidase = Beta-galactosidase (Escherichia coli, UniProt Q8VNN2); assay type: functional
Chain of Beta-galactosidase (Q8VNN2 whole entry): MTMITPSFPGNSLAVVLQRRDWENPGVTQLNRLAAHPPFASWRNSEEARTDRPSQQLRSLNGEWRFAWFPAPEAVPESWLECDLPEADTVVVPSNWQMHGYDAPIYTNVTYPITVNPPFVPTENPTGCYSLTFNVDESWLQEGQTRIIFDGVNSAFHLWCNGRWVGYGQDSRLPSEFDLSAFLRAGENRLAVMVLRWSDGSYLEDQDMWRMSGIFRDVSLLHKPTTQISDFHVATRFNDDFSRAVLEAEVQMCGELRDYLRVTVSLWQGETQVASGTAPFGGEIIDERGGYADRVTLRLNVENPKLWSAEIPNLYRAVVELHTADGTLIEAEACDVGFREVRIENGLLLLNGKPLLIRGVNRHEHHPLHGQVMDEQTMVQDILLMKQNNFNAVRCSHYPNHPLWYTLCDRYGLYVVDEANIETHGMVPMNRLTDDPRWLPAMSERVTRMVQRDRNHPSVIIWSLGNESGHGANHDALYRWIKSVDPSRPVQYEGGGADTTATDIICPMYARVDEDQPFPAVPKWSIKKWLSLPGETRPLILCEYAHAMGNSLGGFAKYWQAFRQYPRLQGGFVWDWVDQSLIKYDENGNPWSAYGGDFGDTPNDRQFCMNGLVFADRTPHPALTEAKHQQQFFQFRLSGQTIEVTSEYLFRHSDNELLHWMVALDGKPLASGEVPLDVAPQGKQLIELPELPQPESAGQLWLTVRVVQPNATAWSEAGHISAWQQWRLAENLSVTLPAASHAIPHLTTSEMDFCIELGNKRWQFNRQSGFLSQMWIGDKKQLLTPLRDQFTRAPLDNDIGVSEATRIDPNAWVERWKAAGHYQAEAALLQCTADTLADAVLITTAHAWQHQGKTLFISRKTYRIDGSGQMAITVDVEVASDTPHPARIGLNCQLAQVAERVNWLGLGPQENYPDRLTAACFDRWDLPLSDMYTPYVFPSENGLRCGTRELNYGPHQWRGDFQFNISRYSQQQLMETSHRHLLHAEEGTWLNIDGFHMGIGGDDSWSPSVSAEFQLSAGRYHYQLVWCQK

BJ [14] = assay: cytotoxicity toward BJ-TERT-LT-ST fibroblasts, dose response, cell-based, RAS-independent, luminescence (AID 1935); assay type: functional; conditions: Homo sapiens;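 note: BJ fibroblasts immortalized with TERT plus LT and ST oncogenes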
[15] = biological target: T2, Kappa-type opioid receptor; assay type: functional; remark: listed apart in the source
[16] = cytotoxicity toward DRD oncogenic fibroblasts, dose response, cell-based, non-viral oncogenic, luminescence (AID 1934); assay type: functional; conditions: Homo sapiens
[17] = biological target: T3, Microphthalmia-associated transcription factor (Homo sapiens, UniProt O75030); assay: TRPM1 promoter luciferase signal decrease, dose response, MITF inhibitor project, cell-based, SK-MEL-5, cherry-picked, set 3 (AID 493073); assay type: functional
T3 sequence (O75030 whole entry): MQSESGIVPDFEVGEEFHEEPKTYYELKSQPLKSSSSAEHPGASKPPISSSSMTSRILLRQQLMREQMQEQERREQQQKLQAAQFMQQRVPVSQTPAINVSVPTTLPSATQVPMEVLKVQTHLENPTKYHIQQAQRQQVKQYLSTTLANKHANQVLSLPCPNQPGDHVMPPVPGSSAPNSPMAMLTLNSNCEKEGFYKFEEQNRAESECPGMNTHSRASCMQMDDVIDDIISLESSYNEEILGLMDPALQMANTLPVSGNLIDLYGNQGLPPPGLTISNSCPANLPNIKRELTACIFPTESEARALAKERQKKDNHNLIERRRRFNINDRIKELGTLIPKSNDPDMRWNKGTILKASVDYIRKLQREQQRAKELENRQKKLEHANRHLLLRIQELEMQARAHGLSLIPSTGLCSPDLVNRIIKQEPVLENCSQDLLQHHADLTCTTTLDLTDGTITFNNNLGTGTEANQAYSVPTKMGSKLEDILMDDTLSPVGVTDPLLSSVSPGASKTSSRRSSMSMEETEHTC

[18] = Shn3 3'UTR reporter inhibitors, dose response, cell-based, Clone20 osteoblasts, firefly luciferase, cherry-picked (AID 624132); assay type: functional;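 note: firefly luciferase luminescence from reporter carrying the Shn3 3'UTR in osteoblasts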
[19] = HepG2 cell cytotoxicity, dose response, cytotoxicity control for Shn3 inhibitor project, CellTiter-Glo, cherry-picked (AID 624134); assay type: functional, cell-based
[20] = control 3'UTR Renilla luciferase suppression, dose response, counter-screen for Shn3 inhibitor project, cell-based, Clone20-Shn3RL, cherry-picked (AID 624133); assay type: functional
[21] = Fluorescence-based cell-based high throughput dose response assay for inhibitors of the interaction of nucleotide-binding oligomerization domain containing 2 (NOD2) and the receptor-interacting serine-threonine kinase 2 (RIPK2).; assay type: functional; conditions: Homo sapiens
Beta Lactamase = Beta Lactamase (Pseudomonas aeruginosa, UniProt Q932Y6); assay: beta-lactamase reporter inhibitor potency, dose response, artefact control for NOD2-RIPK2 interaction inhibitor project, BLA reporter cells, FRET fluorescence (AID 651552); assay type: functional, cell-based
Chain of Beta Lactamase (Q932Y6 whole entry): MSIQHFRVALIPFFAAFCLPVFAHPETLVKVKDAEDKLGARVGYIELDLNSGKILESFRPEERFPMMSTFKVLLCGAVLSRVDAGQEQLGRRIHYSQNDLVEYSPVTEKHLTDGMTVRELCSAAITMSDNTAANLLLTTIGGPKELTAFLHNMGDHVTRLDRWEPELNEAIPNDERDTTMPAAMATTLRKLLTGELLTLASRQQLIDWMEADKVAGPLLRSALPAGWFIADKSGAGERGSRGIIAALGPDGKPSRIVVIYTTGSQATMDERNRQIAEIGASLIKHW

Paired box protein Pax-8 = Paired box protein Pax-8 (Homo sapiens, UniProt Q06710); assay: inhibitors of PAX8-driven TPO luciferase reporter, dose response, RMG-I cells, cherry-pick (AID 687027); assay type: functional, cell-based;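 note: luciferase reporter driven by Pax8 target thyroperoxidase promoter measured by SteadyGlo luminescence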
CAAX prenyl protease 2 = biological target: T4, CAAX prenyl protease 2 (Saccharomyces cerevisiae S288c, UniProt Q03530); assay type: biochemical
T4 sequence (Q03530 whole entry): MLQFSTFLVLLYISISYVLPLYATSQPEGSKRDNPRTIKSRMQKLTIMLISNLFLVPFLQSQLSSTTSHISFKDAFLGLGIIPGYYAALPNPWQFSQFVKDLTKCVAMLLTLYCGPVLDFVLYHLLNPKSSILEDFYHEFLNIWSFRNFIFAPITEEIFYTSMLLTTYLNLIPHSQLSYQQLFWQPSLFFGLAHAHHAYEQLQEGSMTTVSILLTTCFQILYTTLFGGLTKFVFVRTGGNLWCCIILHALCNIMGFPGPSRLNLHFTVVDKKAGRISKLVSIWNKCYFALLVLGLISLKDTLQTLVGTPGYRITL

[22] = biological target: T5, Heat shock factor protein 1 (Mus musculus, UniProt P38532); assay: HSF1 potentiators in luciferase reporter cells, confirmation, cell-based, NIH3T3, luminescence, dose retest (AID 435004); assay type: functional;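 note: stress induced by proteasome inhibitor MG132 added 30 min after compound; luciferase reporter driven by HSF1 response element in NIH3T3 cells; actives raise luminescence as potentiators of the MG132 stress response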
T5 sequence (P38532 whole entry): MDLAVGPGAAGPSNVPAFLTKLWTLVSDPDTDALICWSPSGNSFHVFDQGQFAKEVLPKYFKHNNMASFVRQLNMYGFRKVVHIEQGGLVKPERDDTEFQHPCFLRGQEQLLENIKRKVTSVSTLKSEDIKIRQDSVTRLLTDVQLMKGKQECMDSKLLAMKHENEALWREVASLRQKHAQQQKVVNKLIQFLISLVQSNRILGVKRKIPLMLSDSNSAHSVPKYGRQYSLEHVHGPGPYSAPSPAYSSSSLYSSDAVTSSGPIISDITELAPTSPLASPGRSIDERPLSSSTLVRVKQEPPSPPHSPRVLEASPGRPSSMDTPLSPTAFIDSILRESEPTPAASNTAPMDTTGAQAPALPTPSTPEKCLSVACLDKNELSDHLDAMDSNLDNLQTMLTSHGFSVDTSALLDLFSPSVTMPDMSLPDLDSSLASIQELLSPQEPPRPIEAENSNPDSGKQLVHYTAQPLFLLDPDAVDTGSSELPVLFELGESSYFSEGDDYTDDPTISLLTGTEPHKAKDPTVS

[23] = biological target: DNA damage-inducible transcript 3 protein (Mus musculus, UniProt P35639); assay type: functional, Cricetulus griseus
Chain of DNA damage-inducible transcript 3 protein (P35639 whole entry): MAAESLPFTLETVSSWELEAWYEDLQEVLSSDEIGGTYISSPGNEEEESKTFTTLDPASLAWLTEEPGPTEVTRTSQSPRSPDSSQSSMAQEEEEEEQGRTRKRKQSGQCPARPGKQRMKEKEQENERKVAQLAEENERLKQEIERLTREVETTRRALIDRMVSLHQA

[24] = NIH-3T3 fibroblast cytotoxicity, dose response, cytotoxicity control, cell-based, fluorescence, Alamar Blue, secondary assay (AID 2327); assay type: functional;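 note: NIH-3T3 mouse fibroblasts cultured with fluconazole at 8 µg/mL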
[25] = C. albicans growth with fluconazole, confirmation, fluorescence, retest (AID 2467); assay type: functional, cell-based
Cytochrome P450 2D6 = Cytochrome P450 2D6 (Homo sapiens, UniProt P10635);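 note: CYP2D6 member of a cytochrome P450 panel assay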
Chain of Cytochrome P450 2D6 (P10635 whole entry): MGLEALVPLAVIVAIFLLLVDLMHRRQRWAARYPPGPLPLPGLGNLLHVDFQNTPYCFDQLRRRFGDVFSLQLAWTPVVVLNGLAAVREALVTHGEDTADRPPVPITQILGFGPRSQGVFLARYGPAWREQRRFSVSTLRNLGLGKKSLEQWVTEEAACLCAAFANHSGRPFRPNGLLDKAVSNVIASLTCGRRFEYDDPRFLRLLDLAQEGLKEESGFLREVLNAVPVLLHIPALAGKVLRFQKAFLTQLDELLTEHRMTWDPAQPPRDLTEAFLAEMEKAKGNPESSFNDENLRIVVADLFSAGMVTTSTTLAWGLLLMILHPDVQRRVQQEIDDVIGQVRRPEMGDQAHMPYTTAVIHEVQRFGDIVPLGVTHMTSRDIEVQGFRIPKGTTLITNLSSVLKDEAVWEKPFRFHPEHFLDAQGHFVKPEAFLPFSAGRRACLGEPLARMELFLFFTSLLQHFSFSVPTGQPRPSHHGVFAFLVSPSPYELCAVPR

Cytochrome P450 3A4 = Cytochrome P450 3A4 (Homo sapiens, UniProt P08684);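 note: CYP3A4 tested as one member of a cytochrome P450 panel screen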
Chain of Cytochrome P450 3A4 (P08684 whole entry): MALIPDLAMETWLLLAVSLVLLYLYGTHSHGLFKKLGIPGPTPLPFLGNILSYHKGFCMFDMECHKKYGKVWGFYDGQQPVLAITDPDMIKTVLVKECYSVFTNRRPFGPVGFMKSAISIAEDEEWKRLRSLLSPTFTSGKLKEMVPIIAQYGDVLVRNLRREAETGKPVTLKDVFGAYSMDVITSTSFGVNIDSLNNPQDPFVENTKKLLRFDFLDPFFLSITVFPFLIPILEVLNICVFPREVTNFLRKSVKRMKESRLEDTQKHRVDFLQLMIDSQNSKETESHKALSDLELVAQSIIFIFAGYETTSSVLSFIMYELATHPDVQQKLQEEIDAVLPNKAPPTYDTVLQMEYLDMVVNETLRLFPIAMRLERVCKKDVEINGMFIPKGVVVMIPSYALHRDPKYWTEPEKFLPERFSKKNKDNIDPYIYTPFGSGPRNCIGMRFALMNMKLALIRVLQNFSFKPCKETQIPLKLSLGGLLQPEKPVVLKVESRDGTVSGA

Cytochrome P450 2C9 = Cytochrome P450 2C9 (Homo sapiens, UniProt P11712)
Chain of Cytochrome P450 2C9 (P11712 whole entry): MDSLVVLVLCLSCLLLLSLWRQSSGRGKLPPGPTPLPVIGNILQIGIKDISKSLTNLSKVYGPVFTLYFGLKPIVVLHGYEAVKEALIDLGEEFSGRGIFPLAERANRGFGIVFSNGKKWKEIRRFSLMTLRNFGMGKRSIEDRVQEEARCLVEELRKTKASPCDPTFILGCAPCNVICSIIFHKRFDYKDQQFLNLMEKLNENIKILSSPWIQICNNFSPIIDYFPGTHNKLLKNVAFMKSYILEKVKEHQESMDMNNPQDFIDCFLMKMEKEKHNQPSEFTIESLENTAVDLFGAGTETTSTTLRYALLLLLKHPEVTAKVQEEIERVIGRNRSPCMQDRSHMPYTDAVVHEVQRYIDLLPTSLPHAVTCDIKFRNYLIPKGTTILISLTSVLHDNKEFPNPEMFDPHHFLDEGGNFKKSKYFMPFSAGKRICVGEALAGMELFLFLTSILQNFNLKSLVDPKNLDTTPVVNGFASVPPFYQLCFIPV

[26] = biological target: DNA dC->dU-editing enzyme APOBEC-3A (Homo sapiens, UniProt P31941); assay: APOBEC3A DNA deaminase inhibitors, dose response, biochemical (AID 504722); assay type: functional
Chain of DNA dC->dU-editing enzyme APOBEC-3A (P31941 whole entry): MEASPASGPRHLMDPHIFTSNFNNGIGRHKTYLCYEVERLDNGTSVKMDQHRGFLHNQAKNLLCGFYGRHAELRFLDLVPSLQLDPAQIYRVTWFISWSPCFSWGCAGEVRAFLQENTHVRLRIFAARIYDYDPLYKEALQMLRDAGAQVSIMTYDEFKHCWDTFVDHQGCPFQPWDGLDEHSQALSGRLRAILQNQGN

[27] = biological target: DNA dC->dU-editing enzyme APOBEC-3G (Homo sapiens, UniProt Q9HC16); assay: Dose Response confirmation of small molecule APOBEC3G DNA Deaminase Inhibitors via a fluorescence-based single-stranded DNA deaminase assay. [Related pubchem assays (depositor defined):AID493012, AID493028]; assay type: functional
Chain of DNA dC->dU-editing enzyme APOBEC-3G (Q9HC16 whole entry): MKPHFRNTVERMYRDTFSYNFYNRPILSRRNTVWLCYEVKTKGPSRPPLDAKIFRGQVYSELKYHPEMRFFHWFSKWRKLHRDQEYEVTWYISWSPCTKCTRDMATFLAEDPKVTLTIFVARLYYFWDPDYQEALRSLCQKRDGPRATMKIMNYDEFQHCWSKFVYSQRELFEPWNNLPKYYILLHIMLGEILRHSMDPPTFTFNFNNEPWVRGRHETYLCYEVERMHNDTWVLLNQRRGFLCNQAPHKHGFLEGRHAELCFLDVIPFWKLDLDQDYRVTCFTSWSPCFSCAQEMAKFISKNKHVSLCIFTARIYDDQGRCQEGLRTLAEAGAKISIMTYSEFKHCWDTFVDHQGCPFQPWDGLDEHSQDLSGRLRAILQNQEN

[28] = biological target: FAD-linked sulfhydryl oxidase ALR (Homo sapiens, UniProt P55789); assay: inhibitors of human ALR sulfhydryl oxidase, dose response, biochemical, H2O2 detection, luminescence, cherry-pick (AID 493248)
Chain of FAD-linked sulfhydryl oxidase ALR (P55789 whole entry): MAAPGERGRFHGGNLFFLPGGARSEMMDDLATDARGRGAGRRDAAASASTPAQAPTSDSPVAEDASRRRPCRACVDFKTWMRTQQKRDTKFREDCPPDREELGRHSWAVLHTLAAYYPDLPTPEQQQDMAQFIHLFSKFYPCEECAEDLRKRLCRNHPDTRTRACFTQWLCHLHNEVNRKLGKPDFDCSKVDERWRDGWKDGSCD

[29] = biological target: T6, Rac GTPase-activating protein 1 (Homo sapiens, UniProt Q9H0H5); assay: MgcRacGAP GTPase-activating activity inhibitors, confirmation, biochemical, ADP Hunter fluorescence, primary and confirmatory (AID 624330); assay type: functional
T6 sequence (Q9H0H5 whole entry): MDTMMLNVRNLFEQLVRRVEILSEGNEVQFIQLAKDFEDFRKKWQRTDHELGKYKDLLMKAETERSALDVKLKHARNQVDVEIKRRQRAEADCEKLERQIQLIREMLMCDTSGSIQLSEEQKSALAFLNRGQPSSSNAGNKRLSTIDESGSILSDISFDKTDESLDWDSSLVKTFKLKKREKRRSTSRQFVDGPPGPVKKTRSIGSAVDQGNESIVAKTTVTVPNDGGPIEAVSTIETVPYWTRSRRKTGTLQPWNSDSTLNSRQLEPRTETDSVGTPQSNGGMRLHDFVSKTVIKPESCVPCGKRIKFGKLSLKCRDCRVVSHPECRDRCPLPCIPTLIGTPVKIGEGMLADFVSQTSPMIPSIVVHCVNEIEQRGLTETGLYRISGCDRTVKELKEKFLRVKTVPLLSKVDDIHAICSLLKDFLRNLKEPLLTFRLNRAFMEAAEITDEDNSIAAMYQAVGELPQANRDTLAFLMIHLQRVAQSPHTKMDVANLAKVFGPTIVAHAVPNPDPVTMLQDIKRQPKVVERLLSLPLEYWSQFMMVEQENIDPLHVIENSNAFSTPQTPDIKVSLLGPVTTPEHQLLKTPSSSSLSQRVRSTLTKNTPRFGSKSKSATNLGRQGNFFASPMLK

Chain of Eukaryotic translation initiation factor 4E (P63073 whole entry): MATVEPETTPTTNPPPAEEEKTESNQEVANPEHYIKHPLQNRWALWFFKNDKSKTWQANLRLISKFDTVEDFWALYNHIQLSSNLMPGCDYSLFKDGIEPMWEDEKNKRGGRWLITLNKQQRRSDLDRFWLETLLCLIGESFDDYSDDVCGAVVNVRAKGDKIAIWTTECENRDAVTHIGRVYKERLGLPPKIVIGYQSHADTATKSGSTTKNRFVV

With `CCn1nnnc1SCC(=O)Nc1cccc(NC(C)=O)c1` the IC50 [1] was > 64 µM (inactive).
In the case of `COCCN(CC(=O)NC1CCCCC1)C(=O)/C=C/C(=O)c1ccc(OC)cc1O`, the IC50 [2] is reported as > 32 µM (inactive), the EC50 [3] is reported as 8.52 µM (active) and the EC50 (HEK293 [4]) is reported as > 20 µM (inactive). For the same molecule, the EC50 (Mu-type opioid receptor) was > 32 µM (inactive), the EC50 [5] was > 32 µM (inactive) and the EC50 (BJ [6]) was 2.71 µM (inconclusive). For the same molecule, the IC50 (HEK293 [7]) was 16.6 µM (active), the EC50 [8] was 9.57 µM (active) and the EC50 [9] was > 120 µM (not active). The EC50 (BJ [10]) was 9.79 µM (inconclusive), the IC50 (HEK293 [11]) was > 20 µM (inactive) and the IC50 (HEK293 [12]) was > 20 µM (inactive). The IC50 [13] was 7.13 µM (active), the EC50 (Beta-galactosidase) was > 31.5 µM (inactive) and the EC50 (BJ [14]) was 1.62 µM (inconclusive). For the same molecule, the IC50 [15] was 16.1 µM, the EC50 [16] was 2.74 µM (inconclusive) and the AC50 [17] was 5.48 µM (active). The AC50 [18] was 2.58 µM (active), the AC50 [19] was 13.7 µM (active) and the AC50 [20] was 9.9 µM (active). The IC50 [21] was 3.11 µM (active), the IC50 (Beta Lactamase) was 17.8 µM (inactive) and the AC50 (Paired box protein Pax-8) was 5.38 µM (active).
In the case of `CC1(C)CC2CC(C)(CN2S(=O)(=O)c2ccc(N)cc2)C1` (stereo not drawn), the AC50 (CAAX prenyl protease 2) is reported as 93.4 µM (active).
With `Cc1cccc(C)c1N1CCN(c2ccc3nnc(C(F)(F)F)n3n2)CC1` the EC50 [22] was 70 µM (active) and the “Absolute IC50 (CHOP)” value [23] was 10 µM.
With `CC(=O)Nc1ccc(N2CCCCC2)c(C(=O)Nc2cccc(C)c2)c1` the EC50 [24] was 50.5 µM (active), the EC50 [25] was > 38 µM (not active) and the IC50 [1] was > 64 µM (inactive). The AC50 (Cytochrome P450 2D6) was 17.8 µM (inconclusive), the AC50 (Cytochrome P450 3A4) was 22.4 µM (inconclusive) and the AC50 (Cytochrome P450 2C9) was 12.6 µM (inconclusive).
In the case of `Sc1nnc(-c2ccncc2)n1/N=C/C=C/c1ccccc1`, the IC50 [26] is reported as > 100 µM (inactive), the IC50 [27] is reported as 2.76 µM (active) and the AC50 [28] is reported as 8.12 µM (active). The IC50 [29] was 125 µM (active).
